Assays:
FLT3 = target: T1, FLT3 (Homo sapiens, UniProt P36888); experiment: Kinase inhibition assay: FLT3; assay type: biochemical
T1 construct: truncated human FAK, RET, FLT3, JAK2, and LRRK2; purchased Carna Biosciences
T1 sequence (P36888 564-993 limits assumed): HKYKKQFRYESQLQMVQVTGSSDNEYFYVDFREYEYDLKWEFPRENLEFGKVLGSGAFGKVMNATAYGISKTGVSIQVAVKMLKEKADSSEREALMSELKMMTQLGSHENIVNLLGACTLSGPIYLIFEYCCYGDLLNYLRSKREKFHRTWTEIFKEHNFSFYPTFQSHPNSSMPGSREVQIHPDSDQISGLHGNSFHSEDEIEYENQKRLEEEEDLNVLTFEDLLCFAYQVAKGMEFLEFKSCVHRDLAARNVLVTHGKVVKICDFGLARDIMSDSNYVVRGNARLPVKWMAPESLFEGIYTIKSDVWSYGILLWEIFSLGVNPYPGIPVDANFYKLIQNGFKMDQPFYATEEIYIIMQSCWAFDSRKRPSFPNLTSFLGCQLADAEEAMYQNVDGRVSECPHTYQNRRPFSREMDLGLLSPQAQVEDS

SYK = target: T2, SYK (Homo sapiens, UniProt P43405); experiment: Kinase inhibition assay: SYK; assay type: biochemical; conditions: at 1 μM concentration
T2 construct: Purified full-length human SYK, ZAP70, PIM1, PYK2; purchased Carna Biosciences

JAK2 = JAK2 (Homo sapiens, UniProt O60674); experiment: Kinase inhibition assay: JAK2; assay type: biochemical; set-up: truncated human FAK, RET, FLT3, JAK2, and LRRK2; purchased Carna Biosciences
LRRK2 = target: T3, LRRK2 (Homo sapiens, UniProt Q5S007); experiment: Kinase inhibition assay: LRRK2; assay type: biochemical; conditions: at 1 μM concentration
T3 construct: truncated human FAK, RET, FLT3, JAK2, and LRRK2; purchased Carna Biosciences
Protocol: Compounds of the present invention were tested for their capacity to inhibit a kinase panel which includes, but are not limited to, spleen tyrosine kinase (SYK), zeta-chain-associated protein kinase 70 (ZAP70), PTK2B protein tyrosine kinase 2 (PYK2), focal adhesion kinase (FAK), provirus integration of maloney kinase 1 (PIM1), rearranged during transfection kinase (RET), Fms-like tyrosine kinase 3 (FLT3), Janus kinase 2 (JAK2), and leucine-rich repeat kinase 2 (LRRK2).
Inhibition of SYK, ZAP70, PYK2, FAK, PIM1, RET, FLT3, JAK2 and LRRK2 Kinase Activity
Compounds of the invention were initially diluted to 10 mM in 100% DMSO (CALBIOCHEM™) for storage and made into kinase buffer solution to create a compound concentration ranging from 1 uM and 10 uM. Serial dilutions of compounds of the invention were dispensed into a 96-well plate (GREINER BIOSCIENCES™) at 6 μL each. Purified full-length human SYK, ZAP70, PIM1, PYK2 and truncated human FAK, RET, FLT3, JAK2, and LRRK2 (CARNA BIOSCIENCES™) were diluted in kinase buffer and added to the compound solutions and pre-incubated for 30 minutes at room temperature (1 hour for PYK2). […] The reaction mixture was incubated for 1 hour (2 hours for PYK2). Following the incubation, the stop solution made with EDTA, water, and Lance detection buffer ([…]™) was added (12μL each) to stop phosphorylation. […] The IC50 value of test compound was calculated at Gradpad Prism 5 unless specified otherwise.

[1] = tested on: TNF-α release in THP-1 cells; experiment: SYK dependent TNF-α release assay (IgG stimulation); assay type: cell-based, human
Protocol: (§1) Compounds of the present invention are tested for their effects on TNF-α release in human acute monocytic leukimia cell line (THP-1) to illustrate potential efficacy at the cellular level. TNF-α is a cytokine involved in systemic inflammation and is a member of a group of cytokines that stimulate the acute phase reaction. The primary role of TNF-α is in the regulation of immune cells. TNF-α is known to induce apoptotic cell death and inflammation and to inhibit early tumorigenesis and viral replication. Dysregulation and, in particular, overproduction of TNF-α have been implicated in a variety of human diseases, autoimmune disease, inflammation, arthritis and cancer.
(§2) Production or release of TNF-α is controlled by type of stimulus to which the cell responds. SYK activity is involved in mediating TNF-α production. When stimulated by IgG, cells increase TNF-α production in a SYK dependent manner (i.e., the SYK dependent pathway). However, when stimulated by lipopolysaccharide (LPS), they produce TNF-α in a SYK independent manner.
Compounds of the invention were tested for their TNF-α release effect on THP-1 cells. For SYK dependent TNF-α release assay (i.e., via IgG stimulation), THP-1 cells derived from human monocytic cells were obtained from the American Type Culture Collection (ATCC, Manassas, Va.). This cell line was maintained with an Roswell Park Memorial Institute (RPMI) medium (GIBCO™) containing 10 fetal bovine serum (FBS; GIBCO™) and 0.05 mM 2-mercaptoethanol. The THP-1 cells were seeded at 1×10^5 cells/100 μL/well into human IgG (10 μg/well, INVITROGENT™)-coated 96 well culture plate, and serially diluted compound was then added. After an 18-hour incubation period at 37° C., supernatants were collected for the determination of the TNF-α level by enzyme-linked immunosorbent assay (ELISA), and the remaining cells were subjected to an MTT (yellow tetrazolium salt) assay to determine the cytotoxic effects of compound.

[2] = tested on: TNF-α release in THP-1 cells; experiment: SYK independent TNF-α release assay (LPS stimulation); assay type: cell-based; conditions: Homo sapiens, 18-hour incubation
Protocol: as §1, §2
For SYK independent TNF-α release assay (i.e., via lipopolysaccharide (LPS)-stimulation), THP-1 cells derived from human monocytic cells were obtained from the American Type Culture Collection (ATCC, Manassas, Va.). This cell line was maintained with an RPMI medium (GIBCO™) containing 10 fetal bovine serum (FBS, GIBCO™) and 0.05 mM 2-mercaptoethanol. The THP-1 cells were seeded at 1×10^5 cells/100 μL/well into 96-well culture plates, and treated with lipopolysaccharide (1 μg/ml), and serially diluted compound was then added. After an 18-hour incubation period at 37° C., supernatants were collected for the determination of the TNF-α level by ELISA, and the remaining cells were subjected to an MTT assay to determine the cytotoxic effects.

T3 sequence (Q5S007 970-2527 limits assumed): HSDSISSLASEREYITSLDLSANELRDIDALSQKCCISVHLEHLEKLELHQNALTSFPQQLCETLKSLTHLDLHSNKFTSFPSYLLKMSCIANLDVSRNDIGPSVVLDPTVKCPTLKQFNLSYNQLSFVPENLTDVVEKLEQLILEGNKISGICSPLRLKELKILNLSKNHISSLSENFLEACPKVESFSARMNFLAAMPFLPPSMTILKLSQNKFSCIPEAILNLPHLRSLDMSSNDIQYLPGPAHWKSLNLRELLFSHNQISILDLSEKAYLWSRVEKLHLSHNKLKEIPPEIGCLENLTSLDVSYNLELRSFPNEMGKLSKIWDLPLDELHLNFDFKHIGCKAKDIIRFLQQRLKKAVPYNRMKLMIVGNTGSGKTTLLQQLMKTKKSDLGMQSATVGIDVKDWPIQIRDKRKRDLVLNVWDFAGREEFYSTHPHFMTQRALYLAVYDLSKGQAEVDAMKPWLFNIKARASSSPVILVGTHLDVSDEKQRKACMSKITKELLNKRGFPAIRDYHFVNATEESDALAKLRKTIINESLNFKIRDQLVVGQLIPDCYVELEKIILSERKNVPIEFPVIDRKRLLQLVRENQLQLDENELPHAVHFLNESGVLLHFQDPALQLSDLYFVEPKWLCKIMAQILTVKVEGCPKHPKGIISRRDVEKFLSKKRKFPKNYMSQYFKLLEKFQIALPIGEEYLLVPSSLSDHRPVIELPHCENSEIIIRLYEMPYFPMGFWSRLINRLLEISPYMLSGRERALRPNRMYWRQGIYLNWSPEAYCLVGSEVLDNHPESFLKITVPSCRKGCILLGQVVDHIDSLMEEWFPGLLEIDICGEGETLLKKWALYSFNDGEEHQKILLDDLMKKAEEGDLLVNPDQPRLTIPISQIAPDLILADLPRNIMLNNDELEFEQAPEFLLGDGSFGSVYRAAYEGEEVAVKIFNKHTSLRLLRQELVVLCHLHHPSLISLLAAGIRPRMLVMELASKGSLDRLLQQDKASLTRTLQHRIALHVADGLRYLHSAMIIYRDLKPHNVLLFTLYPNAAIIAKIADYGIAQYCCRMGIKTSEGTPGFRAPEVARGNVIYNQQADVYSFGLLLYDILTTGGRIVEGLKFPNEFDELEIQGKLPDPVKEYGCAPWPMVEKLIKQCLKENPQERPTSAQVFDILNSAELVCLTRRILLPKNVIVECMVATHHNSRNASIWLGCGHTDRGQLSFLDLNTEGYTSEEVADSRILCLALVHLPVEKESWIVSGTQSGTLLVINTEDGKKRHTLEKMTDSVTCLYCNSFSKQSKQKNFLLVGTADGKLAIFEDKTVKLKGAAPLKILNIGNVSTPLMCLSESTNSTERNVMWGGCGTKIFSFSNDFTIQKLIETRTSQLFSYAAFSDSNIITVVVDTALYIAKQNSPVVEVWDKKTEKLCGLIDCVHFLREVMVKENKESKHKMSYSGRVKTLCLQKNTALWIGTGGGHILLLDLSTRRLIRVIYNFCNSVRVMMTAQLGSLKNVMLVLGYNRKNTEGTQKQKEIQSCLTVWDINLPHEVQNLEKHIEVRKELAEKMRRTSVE
JAK2, sequence (O60674 826-1132 limits assumed): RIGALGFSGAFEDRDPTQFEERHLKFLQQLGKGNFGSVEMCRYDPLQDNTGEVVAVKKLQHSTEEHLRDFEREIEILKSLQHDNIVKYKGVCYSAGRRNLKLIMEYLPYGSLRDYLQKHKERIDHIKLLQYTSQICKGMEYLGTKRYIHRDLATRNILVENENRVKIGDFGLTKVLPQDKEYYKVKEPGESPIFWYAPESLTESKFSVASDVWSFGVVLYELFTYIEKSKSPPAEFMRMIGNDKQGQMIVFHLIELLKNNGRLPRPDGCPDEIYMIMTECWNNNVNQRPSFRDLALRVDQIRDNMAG

Row | IC50 (FLT3) [nM] | inhibition at 1 µM (SYK) [%] | IC50 (JAK2) [nM] | inhibition at 1 µM (LRRK2) [%] | Structure (SMILES) | inhibition at 0.3 µM ([1]; Homo sapiens, THP-1 cells, IgG stimulation, 0.3 μM, 18-hour incubation) [%] | inhibition at 1 µM ([1]; Homo sapiens, THP-1 cells, IgG stimulation, 1 μM, 18-hour incubation) [%] | percentage inhibition of TNF-α release compared with R406 ([1]; IgG stimulated release, 0.3 μM) | inhibition at 0.3 µM ([2]; 0.3 μM) [%] | inhibition at 1 µM ([2]; 1 μM) [%]
1 | 1.9 | 96.4 | 7.7 | 93 | COc1cc(Nc2ncc(C)c(-n3cc(C)c(CO)c3)n2)cc(OC)c1OC [Compound 21, (4-methyl-1-(5-methyl-2-(3,4,5-trimethoxyphenylamino)pyrimidin-4-yl)-1H-pyrrol-3-yl)methanol] | – | – | – | – | –
2 | – | – | – | – | Cc1cc(C)cc(Nc2ncc(F)c(-n3cc(C)c(CN4CC[C@@H](O)C4)c3)n2)c1 [Compound 82, (R)-1-((1-(2-(3,5-dimethylphenyl-amino)-5-fluoropyrimidin-4-yl)-4-methyl-1H-pyrrol-3-yl)methyl) pyrrolidin-3-ol] | 49.2 | 91.4 | greater that those exhibited by R406 | 18.1 | 21.5

From US8629132B2, “Kinase inhibitors” (Genosco, priority 2009, dated 2014)
